Measurements from US5683989A, “Treatment of ischemias by administration of 2,N^6 -substituted adenosines” (Novo Nordisk A/S, priority 1995, dated 1997).
pKi: −log10 of the molar value.

How the values were obtained:
[1] = biological target: T1, adenosine A1 receptor (Rattus norvegicus, UniProt P25099); test: In vitro binding to adenosine A1 receptor, radioligand [^3 H]-(R)-PIA; conditions: single determinations only; for pKi: [^3 H]-(R)-PIA radioligand; for Ratio A2 /A1: ratio of A2 Ki to A1 Ki
T1 construct: from tissue
T1 sequence (P25099 1-326): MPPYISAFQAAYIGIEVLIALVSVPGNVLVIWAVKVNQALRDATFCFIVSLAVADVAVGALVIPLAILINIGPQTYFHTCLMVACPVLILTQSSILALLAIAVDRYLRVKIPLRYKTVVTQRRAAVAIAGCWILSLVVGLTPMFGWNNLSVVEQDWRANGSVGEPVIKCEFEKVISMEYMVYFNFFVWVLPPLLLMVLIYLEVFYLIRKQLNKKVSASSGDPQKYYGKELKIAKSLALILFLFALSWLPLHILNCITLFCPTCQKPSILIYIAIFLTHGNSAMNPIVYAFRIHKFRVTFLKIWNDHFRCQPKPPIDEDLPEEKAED
From the text: (§1) Evaluation of in vitro binding to adenosine A1 and A2 receptors
(§2) The methods used are described fully in European Journal of Pharmacology, 1993, 242, 221-228.

[2] = biological target: T2, A2 receptor (Rattus norvegicus, UniProt P30543); test: In vitro binding to adenosine A2 receptor, radioligand [^3 H]-CGS 21680; conditions: [^3 H]-CGS 21680 radioligand; single determinations only
T2 construct: from tissue
From the text: as §1, §2

[3] = tested on: A1 receptor; conditions: literature, in words; cited from earlier work

T2 sequence (P30543 whole entry): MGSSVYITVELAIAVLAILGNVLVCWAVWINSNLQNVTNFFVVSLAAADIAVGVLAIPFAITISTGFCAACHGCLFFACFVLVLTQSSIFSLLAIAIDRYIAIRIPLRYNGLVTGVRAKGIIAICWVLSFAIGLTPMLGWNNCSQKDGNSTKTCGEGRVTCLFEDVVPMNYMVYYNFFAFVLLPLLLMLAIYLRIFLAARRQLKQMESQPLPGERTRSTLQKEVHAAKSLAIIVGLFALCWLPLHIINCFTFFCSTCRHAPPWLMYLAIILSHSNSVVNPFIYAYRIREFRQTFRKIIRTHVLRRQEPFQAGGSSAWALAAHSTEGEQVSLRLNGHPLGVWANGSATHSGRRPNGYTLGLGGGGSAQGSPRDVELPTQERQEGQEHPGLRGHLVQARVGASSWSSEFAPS

SMILES	pKi [1]	Ratio A2 /A1 [1]	pKi [2]	selectivity for the A1 receptor over the A2 receptor [3]
C[C@H](CSc1nc2ccccc2s1)Nc1nc(F)nc2c1ncn2[C@@H]1O[C@H](CO)[C@@H](O)[C@H]1O [Example 13, N-[(R)-1-(2-Benzothiazolyl)thio-2-propyl]-2-fluoroadenosine]	8.47	756	5.59	
Cc1nnc(SC[C@@H](C)Nc2nc(Cl)nc3c2ncn3[C@@H]2O[C@H](CO)[C@@H](O)[C@H]2O)s1 [Example 3, 2-Chloro-N-{(R)-1-[5-methyl-(1,3,4-thiadiazol-2-yl)]thio-2-propyl}adenosine]	8.05	110	6.00	
C[C@H](CSc1nc2cc(Cl)ccc2s1)Nc1nc(Cl)nc2c1ncn2[C@@H]1O[C@H](CO)[C@@H](O)[C@H]1O [Example 22, 2-Chloro-N-[(R)-1-(5-chloro-2-benzothiazolyl)thio-2-propyl]adenosine]	8.00	100	6.00	
CC[C@H](CSc1nc2ccccc2s1)Nc1nc(Cl)nc2c1ncn2[C@@H]1O[C@H](CO)[C@@H](O)[C@H]1O [Example 15, N-[(R)-1-(2-Benzothiazolyl)thio-2-butyl]-2-chloroadenosine]	8.15	136	6.02	
OC[C@H]1O[C@@H](n2cnc3c(NC4CCCC4)nc(Cl)nc32)[C@H](O)[C@@H]1O [CCPA, 2-chloro-N-cyclopentyladenosine]				most selective for the A1 receptor over the A2 receptor
C[C@H](CSc1cccs1)Nc1nc(Cl)nc2c1ncn2[C@@H]1O[C@H](CO)[C@@H](O)[C@H]1O [Example 23, 2-Chloro-N-[(R)-1-(2-thienyl)thio-2-propyl]adenosine]	8.35	38	6.77	
C[C@H](CSc1n[nH]c(-c2ccccc2)n1)Nc1nc(Cl)nc2c1ncn2[C@@H]1O[C@H](CO)[C@@H](O)[C@H]1O [Example 27, 2-Chloro-N-{(R)-1-[5-phenyl-(1,2,4-triazol-3-yl)]thio-2-propyl}adenosine]	7.85	355	5.30	
